As a reminder, the melting point is the temperature, or range, at which the solid turns liquid. In the case of `COc1cccc(-c2ccc3c(c2)NC(=O)OC3(C)C)c1`, the melting point fell in the range of 167 to 168 °C.
As for `CC(=O)OCc1nc(C#N)cc(OCc2ccccc2)c1OCc1ccccc1`, the figure is 98 to 99 °C.
Turning to `O=C(O)[C@@H]1C[C@H](Cc2ccc(Cl)cc2)CN1`, the melting point was 233 to 235 °C.
For `Cc1ccc(C(=O)NC(NC(=O)Nc2cccnc2)C(Cl)(Cl)Cl)cc1` (configuration not stated) the value was 162 to 163 °C.
Regarding `Cc1cc(Cl)cc(C(=O)Nc2nc(C)cs2)n1`, the melting point amounted to 176 °C.
For `CC(C)c1cc(OC2CN(C(c3ccccc3)c3ccccc3)C2)cc2c1C(=O)N(COC(=O)c1c(Cl)cccc1Cl)S2(=O)=O` the value was 205 to 207 °C; for `COc1ccc(C2Cc3cc(C(F)(F)F)ccc3NC(=O)C2CO)cc1` (configuration not stated), 190 °C; for `Cn1c(=O)sc2cc(N3C[C@H](CN)OC3=O)ccc21`, 217 °C.
In turn, `O=C(O)c1cc(Cl)c(-n2ccc(C(F)(F)F)cc2=O)c(Cl)c1` showed a melting point of 259 to 260 °C.
For `CSc1nc(Cl)c(Cl)nc1Cl` the value was 45 to 47 °C.
The compound `CCOC(=O)COc1ccc(N)cc1C(F)(F)F` yielded a melting point of 78 to 80 °C.
`CCCn1cc2c(C3C(=O)Nc4ccc(Br)cc43)nc(NCCc3ccccn3)nc2n1` (configuration not stated) yielded a melting point of 283 to 291 °C.
As for `CC(C)Nc1cccnc1N1CCN(C(=O)c2ccc(C(=O)N(C(C)C)C(C)C)cc2)CC1`, the figure is 152 to 153 °C; as for `O=C(Nc1ccccc1)Nc1nc2ccc(OC(=O)c3ccccc3)cc2s1`, 245 to 249 °C; as for `Nc1nc2ccc(C(O)C(COc3ccccc3)N3CCC(Cc4ccccc4)CC3)cc2s1` (configuration not stated), 210 to 214 °C.
As for `CN(C)C=C(C(=O)c1cccc2c1OC(F)(F)O2)C(=O)C1CC1`, the figure is 118 to 119 °C; as for `C#CCOC(=O)Nc1ccc(C2=NNC(=O)CC2C)cc1` (configuration not stated), 204 to 205 °C; as for `CC(=O)On1c(C(F)(F)F)nc2ncc(Cl)cc21`, 103 °C.
Turning to `CCCCCCCCCCCCSC(=O)CS(=O)(=O)Nc1c(OC)cc(OC)cc1OC`, the melting point fell in the range of 90 to 93 °C.
With `O=C1OCCC12Sc1ccccc1C2=O` (configuration not stated), the melting point lay within 125 to 127 °C.
For `Fc1ccc2sc(-c3ccc(CBr)cc3)nc2c1` the value was 138 to 141 °C; for `O=C1CCCCC1c1ccncc1` (configuration not stated), 99 to 101 °C.
In turn, `CN1CC(c2ccc(S(C)(=O)=O)cc2)=C(c2ccc(Cl)cc2)C1=O` came in with a melting point of 129 to 131 °C.
As for `CC(C)CCN1CCC2(CC1)CSC1=C(O2)c2ccccc2C(=O)C1=O`, the figure is 143 to 146 °C; as for `C=C(C)C(=O)OCCc1ccc(N(C)C)cc1`, 42 to 43 °C.
For `COc1cc(Cl)cc(Cl)c1C(=O)NC(C)(C)CO` the value was 131 to 132 °C; for `COc1ccnc(-n2cnc3ccccc32)n1`, 114 to 116 °C; for `O=S(=O)(NCc1ccccc1)c1cc(F)c2cccnc2c1O`, 186 °C.
For `O=CC(=Cc1ccccc1OCc1ccc([N+](=O)[O-])cc1)C(C=O)=Cc1ccccc1OCc1ccc([N+](=O)[O-])cc1` the value was 116 to 117 °C; for `CC(C)n1nc(-c2c(-c3ccccc3)nn3ccc(N4CCN(S(C)(=O)=O)CC4)cc23)ccc1=O`, 219 to 220 °C.
In turn, `Nc1cc(-n2cccn2)nc(-c2ccc(Br)o2)n1` returned a melting point of 221 to 222 °C.
As for `CC(C)c1nc2cc(COc3ccc(CC4SC(=O)NC4=O)cc3)ccc2o1` (configuration not stated), the figure is 128 to 131 °C.
In the case of `CCCCNc1c(N)c(S)nc(C)c1C(=O)OCC`, the melting point lay within 103 to 105 °C.
`COC(=O)C1=C(C)NC(c2scnc2C)=NC1c1ccc(F)cc1Cl` (configuration not stated) gave a melting point of 145 to 147 °C.
In the case of `O=C(O)Cc1cc(C(=O)c2cccc(C(=O)O)c2)ccc1O`, the melting point is greater than 260 °C.
Compound `CCn1cnc(=O)c(-c2cccc(C(F)(F)F)c2)c1` gave a melting point of 172 to 173 °C.
As for `CS(=O)(=O)c1ccc(Cc2ccc(CCNS(=O)(=O)c3ccc(Cl)cc3)c(CCC(=O)O)c2)cc1`, the melting point is 105 to 107 °C.
`Cc1c(F)cc(C(C)(C)C)c(O)c1-c1nc2cc(S(=O)(=O)C(F)(F)F)ccc2[nH]1` displayed a melting point of 245 to 247 °C.
Compound `CCCC1=C(C(=O)OCC)C(c2ccccc2Cl)c2cn(C)nc2N1` (configuration not stated) gave a melting point of 150 to 151 °C.
For `CN(C(N)=O)C1Nc2ccc(Cl)cc2Oc2ccccc21` (configuration not stated) the value was 146 to 149 °C.
Compound `CS(=O)(=O)Nc1cc2occ(N(C=O)CC(=O)O)c(=O)c2cc1Oc1ccccc1` showed a melting point of 98 to 100 °C.
Consider `CCc1cc2c(s1)-n1c(CCNC(=O)c3cc4ccccc4[nH]3)nnc1CN=C2c1ccccc1Cl`, for which the melting point lay within 174 to 178 °C.
`NC(=O)CCn1nccc1-c1ccc(Oc2ccc(F)cc2)cc1` registered a melting point of 118 to 120 °C.
As for `CCC1(CC)CC(c2ccc(OC)c(OC)c2)=NN(C2CCN(C(=O)c3ccccc3)CC2)C1=O`, the figure is 160 to 161 °C; as for `COc1cccc2nc(C)n(C3CCC(=O)NC3=O)c(=O)c12` (configuration not stated), 274 to 276 °C.
As for `Cc1oc(-c2ccccc2)nc1CCOc1ccc(C[C@@H](C(=O)O)N2CCN(S(=O)(=O)c3ccccc3)CC2)cc1`, the figure is 180 to 182 °C; as for `CNC(=O)N1CCC(C(c2ccc(F)cc2)N(CCc2ccccc2)C(=O)NC)CC1` (configuration not stated), 186 to 188 °C; as for `COc1ccc(-c2nnc3c4ccccc4c(OCCO)nn23)cc1`, 252 to 254 °C.
For `CCCCCc1c(C(C)C)nc(C(C)C)c(CN(C)C)c1-c1ccc(F)cc1`, the melting point was 69 to 71 °C.
As for `CNc1cc(S(=O)(=O)c2ccccc2)ccn1`, the figure is 142 to 143 °C; as for `CC(=O)OCC1=C(C(=O)OC(C)(C)C)N2C(=O)C(NC(=O)CC3=CSCCS3)C2SC1` (configuration not stated), 80 °C.
As for `C=CCOc1ccc(OCc2ccccc2)cc1`, the figure is 56 to 57 °C; as for `O=C(CN1CCOCC1)N1CCN(c2ccc(O)cc2)CC1`, 197 °C.
Compound `CCOC(=O)/C=C(C)/C=C/C=C(C)/C=C/c1c(C)coc1C` returned a melting point of 98 to 101 °C.
For `O=Cc1ccc2c(c1)Sc1ccccc1CC2`, the melting point is 55.5 to 56.5 °C.
Turning to `CC(C)N(C(=O)CN1C(=O)C(C)(CC(=O)Nc2ccccc2)C(=O)N(c2ccc(Cl)cc2)c2ccccc21)c1ccccc1` (configuration not stated), the melting point was 170 to 176 °C.
For `CC(=O)n1cc(Cl)c(-c2cccc3c2OC(F)(F)O3)n1` the value was 131 °C; for `COc1ccc(S(=O)(=O)N2C(=O)C(O[Si](C)(C)C)(c3ccccc3Cl)c3cc(Cl)c(OC)cc32)c(OC)c1` (configuration not stated), 217 to 219 °C; for `COc1cc2c(c(Cl)c1Cl)C(=O)C(CCCl)=C2`, 103 to 105 °C.
Compound `Cc1cccc(NC(C(N)=O)c2ccccc2C)c1` (configuration not stated) returned a melting point of 90 to 91.5 °C.
For `CCS(=O)(=O)CCC(=O)NNC(=O)N1Cc2ccccc2Oc2ccc(C#N)cc21` the value was 188 to 190 °C.
As for `O=C1CC(c2ccccc2Cl)Cc2[nH]nc(-c3ccccc3)c21` (configuration not stated), the figure is 218 to 222 °C.

The values above are taken from a melting point compilation (Tetko et al.; mined from patent text by program, amines drawn as free bases though some values may be those of a salt).
